How the values were obtained:
hNav1.7 = biological target: T1, hNav1.7 (Homo sapiens, UniProt Q15858); experiment: cell-based; conditions: patch clamp method not given; read-out: pIC50 Nav1.7 (converted)
T1 construct: host or cells: HEK293

hNav1.4 = hNav1.4 (Homo sapiens, UniProt P35499); experiment: cell-based; conditions: patch clamp method not given; read-out: pIC50 Nav1.4 (converted)
hNav1.6 = hNav1.6 (Homo sapiens, UniProt Q9UQD0); experiment: cell-based; conditions: patch clamp method not given; read-out: pIC50 Nav1.6 (converted)
[1] = system: TTX-resistant sodium current, rat DRG cells; experiment: Rat DRG patch clamp, TTX-resistant current; assay type: cell-based
[2] = system: TTX-sensitive current, rat DRG cells; assay type: cell-based
[3] = system: mixed sodium current, rat DRG cells; assay type: cell-based
[4] = system: formalin-induced flinching, rat; conditions: in vivo
[5] = system: formalin-induced flinching, morphine-tolerant rats; conditions: rat, in vivo
Method: A soft metal band was glued to the plantar side of one hind paw and rats were allowed to acclimate in the test chamber for 30 min. […] The incidence of nociceptive behavior - flinching and shaking of the injected paw was counted by an automated formalin apparatus (University Anesthesia Research and Development Group, Department of Anesthesiology, University of California, San Diego, La Jolla, CA). The number of paw flinches was tallied by minute over 60 min[60]. Total flinches in phase I (0~10 min) and phase II (11~60 min) were calculated.
Male Sprague-Dawley (CD) rats (Charles River, San Diego) ~250–300 g were catheterized intrathecally as described above. The non-indwelling end (PE60) of the catheter was connected to the flow modulator of an osmotic pump (Alzet 2001, 1 μl/h) loaded with morphine or saline vehicle, which underwent priming at 37 °C overnight in sterile saline. The osmotic pump was implanted subcutaneously above the scapula. To induce morphine tolerance, morphine was infused intrathecally by the osmotic pump at a dose of 15 μg/h for 7 days[61]. On day 7 the pumps were extracted and the wounds were closed with the intrathecal catheters left in place. Catheters were flushed with 20 μL of saline.

[6] = system: formalin-induced flinching, morphine-tolerant rats; conditions: rat, in vivo; cited from earlier work
[7] = rat, in vivo
[8] = rat, in vivo, iv; cited from earlier work

T1 sequence (Q15858 whole entry): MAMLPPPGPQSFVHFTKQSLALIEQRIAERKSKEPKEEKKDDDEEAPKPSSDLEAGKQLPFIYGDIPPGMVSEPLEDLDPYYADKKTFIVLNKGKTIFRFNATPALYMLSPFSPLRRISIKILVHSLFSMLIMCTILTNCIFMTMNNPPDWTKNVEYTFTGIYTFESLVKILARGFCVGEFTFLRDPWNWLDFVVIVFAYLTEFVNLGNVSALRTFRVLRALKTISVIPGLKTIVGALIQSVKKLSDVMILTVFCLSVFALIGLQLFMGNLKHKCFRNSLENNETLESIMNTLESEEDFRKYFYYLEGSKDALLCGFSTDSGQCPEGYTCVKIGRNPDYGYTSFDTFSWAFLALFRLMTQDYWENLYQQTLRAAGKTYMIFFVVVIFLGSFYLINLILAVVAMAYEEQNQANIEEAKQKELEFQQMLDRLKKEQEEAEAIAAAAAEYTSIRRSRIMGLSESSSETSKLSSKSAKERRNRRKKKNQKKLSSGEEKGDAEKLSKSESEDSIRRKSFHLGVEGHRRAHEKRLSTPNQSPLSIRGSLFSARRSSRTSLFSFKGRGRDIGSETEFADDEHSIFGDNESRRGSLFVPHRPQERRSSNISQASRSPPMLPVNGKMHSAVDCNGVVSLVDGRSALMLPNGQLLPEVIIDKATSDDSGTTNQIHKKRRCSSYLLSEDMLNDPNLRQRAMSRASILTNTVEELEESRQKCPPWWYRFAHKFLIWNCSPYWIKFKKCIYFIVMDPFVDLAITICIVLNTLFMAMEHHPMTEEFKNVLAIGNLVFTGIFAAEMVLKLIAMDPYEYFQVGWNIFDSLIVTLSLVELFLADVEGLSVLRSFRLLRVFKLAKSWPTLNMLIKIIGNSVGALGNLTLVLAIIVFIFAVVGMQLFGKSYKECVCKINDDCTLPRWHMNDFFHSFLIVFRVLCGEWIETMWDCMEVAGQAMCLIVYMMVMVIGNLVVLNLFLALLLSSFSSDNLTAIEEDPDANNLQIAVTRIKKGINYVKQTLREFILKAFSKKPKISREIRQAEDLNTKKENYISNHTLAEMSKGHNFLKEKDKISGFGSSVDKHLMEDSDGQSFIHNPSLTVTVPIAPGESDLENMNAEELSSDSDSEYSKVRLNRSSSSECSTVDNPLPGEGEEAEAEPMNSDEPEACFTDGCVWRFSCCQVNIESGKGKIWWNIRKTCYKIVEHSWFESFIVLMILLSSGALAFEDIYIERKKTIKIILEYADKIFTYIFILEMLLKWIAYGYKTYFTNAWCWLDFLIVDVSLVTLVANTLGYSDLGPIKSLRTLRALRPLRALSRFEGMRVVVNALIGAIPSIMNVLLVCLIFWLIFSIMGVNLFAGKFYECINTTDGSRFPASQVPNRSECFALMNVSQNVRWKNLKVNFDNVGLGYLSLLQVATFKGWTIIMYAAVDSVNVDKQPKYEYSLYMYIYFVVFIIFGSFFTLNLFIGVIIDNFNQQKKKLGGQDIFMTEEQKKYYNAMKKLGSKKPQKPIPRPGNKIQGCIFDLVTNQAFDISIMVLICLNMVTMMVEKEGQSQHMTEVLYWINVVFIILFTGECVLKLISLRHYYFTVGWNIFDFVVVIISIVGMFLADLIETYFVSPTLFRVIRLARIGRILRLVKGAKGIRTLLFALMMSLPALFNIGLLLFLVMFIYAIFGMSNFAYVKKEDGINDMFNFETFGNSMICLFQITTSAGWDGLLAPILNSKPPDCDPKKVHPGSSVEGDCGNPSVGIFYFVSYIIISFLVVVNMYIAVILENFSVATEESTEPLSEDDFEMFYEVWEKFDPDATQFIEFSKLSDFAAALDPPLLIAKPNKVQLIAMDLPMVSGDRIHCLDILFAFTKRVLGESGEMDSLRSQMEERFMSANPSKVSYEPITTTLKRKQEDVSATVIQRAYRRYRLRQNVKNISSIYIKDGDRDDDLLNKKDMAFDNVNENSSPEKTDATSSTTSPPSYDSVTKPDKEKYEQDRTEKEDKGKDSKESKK
Chain of hNav1.4 (P35499 whole entry): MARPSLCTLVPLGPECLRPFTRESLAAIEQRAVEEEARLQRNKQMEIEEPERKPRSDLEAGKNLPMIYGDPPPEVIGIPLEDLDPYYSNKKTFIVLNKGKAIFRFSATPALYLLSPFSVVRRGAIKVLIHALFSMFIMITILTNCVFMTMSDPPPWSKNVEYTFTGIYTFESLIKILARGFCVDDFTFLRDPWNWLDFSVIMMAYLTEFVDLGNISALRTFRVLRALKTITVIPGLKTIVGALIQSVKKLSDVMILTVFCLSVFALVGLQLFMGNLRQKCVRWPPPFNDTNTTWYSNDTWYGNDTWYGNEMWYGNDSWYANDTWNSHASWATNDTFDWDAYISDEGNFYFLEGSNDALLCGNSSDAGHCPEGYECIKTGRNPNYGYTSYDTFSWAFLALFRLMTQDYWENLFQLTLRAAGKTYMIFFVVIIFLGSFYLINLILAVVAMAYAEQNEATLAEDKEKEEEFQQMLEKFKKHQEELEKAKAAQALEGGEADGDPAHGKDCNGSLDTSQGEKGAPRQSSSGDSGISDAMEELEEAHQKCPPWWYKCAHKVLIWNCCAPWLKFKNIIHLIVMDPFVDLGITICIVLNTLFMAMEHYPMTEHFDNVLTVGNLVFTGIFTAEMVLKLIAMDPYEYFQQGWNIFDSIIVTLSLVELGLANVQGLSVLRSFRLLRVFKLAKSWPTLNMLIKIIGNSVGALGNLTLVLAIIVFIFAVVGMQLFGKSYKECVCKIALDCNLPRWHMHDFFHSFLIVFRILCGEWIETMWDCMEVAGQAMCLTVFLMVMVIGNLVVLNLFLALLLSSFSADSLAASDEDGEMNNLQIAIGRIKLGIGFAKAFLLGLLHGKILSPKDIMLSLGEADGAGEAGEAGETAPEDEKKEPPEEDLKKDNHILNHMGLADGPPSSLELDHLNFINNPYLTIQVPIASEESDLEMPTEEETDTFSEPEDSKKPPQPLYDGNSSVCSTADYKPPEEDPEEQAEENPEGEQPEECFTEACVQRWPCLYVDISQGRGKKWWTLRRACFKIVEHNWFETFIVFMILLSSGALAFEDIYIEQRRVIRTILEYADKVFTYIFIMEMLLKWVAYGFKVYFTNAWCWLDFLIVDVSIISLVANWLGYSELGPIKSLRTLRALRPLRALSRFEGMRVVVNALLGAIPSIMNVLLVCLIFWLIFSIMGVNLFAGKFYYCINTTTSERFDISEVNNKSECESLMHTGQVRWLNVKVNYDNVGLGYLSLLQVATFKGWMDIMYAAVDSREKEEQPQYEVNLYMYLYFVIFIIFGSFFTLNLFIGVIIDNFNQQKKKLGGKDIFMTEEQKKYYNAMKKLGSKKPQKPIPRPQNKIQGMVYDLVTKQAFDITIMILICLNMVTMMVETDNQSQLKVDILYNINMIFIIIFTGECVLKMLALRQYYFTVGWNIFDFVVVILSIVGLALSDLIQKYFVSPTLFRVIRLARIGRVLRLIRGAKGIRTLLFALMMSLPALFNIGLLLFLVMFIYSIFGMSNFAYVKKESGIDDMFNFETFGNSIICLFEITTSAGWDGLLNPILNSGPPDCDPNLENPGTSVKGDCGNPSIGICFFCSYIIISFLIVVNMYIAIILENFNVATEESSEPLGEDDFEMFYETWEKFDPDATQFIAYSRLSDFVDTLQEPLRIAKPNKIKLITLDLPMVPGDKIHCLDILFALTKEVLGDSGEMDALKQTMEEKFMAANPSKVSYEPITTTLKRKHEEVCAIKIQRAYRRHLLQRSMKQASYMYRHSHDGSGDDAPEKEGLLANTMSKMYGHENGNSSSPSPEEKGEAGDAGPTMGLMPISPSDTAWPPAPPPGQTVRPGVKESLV

## CSCC[C@@H]1NC(=O)CNC(=O)[C@H](CCC(=O)O)NC(=O)[C@@H]2CSSC[C@H](NC(=O)[C@@H](N)Cc3ccc(O)cc3)C(=O)N[C@@H](CCC(N)=O)C(=O)N[C@@H](CCCCN)C(=O)N[C@@H](Cc3c[nH]c4ccccc34)C(=O)N[C@@H](CCSC)C(=O)N[C@@H](CCC(N)=O)C(=O)N[C@@H]([C@@H](C)O)C(=O)N[C@H]3CSSC[C@H](NC(=O)[C@H](C(C)C)NC1=O)C(=O)N[C@@H](CCCNC(=N)N)C(=O)N[C@@H](CC(C)C)C(=O)N[C@@H](Cc1c[nH]c4ccccc14)C(=O)N[C@H](C(=O)N[C@@H](CCCCN)C(=O)N[C@@H](CCCCN)C(=O)N[C@@H](CCCCN)C(=O)N[C@@H](CC(C)C)C(=O)N[C@@H](CC(C)C)C(=O)O)CSSC[C@H](NC(=O)[C@H](CCCCN)NC(=O)[C@H](CCCNC(=N)N)NC(=O)[C@H](CCC(=O)O)NC(=O)[C@H](CO)NC(=O)[C@H](CC(=O)O)NC3=O)C(=O)N2 [ProTX-II W7Q, W30L]
hNav1.7
  IC50: 10 nM
hNav1.4
  IC50: 3980 nM
hNav1.6
  IC50: 2000 nM

## NC1=N[C@H](O)[C@H]2[C@H]3O[C@]4(O)O[C@@H]([C@@H](O)[C@@]2(N1)[C@@H]4O)[C@]3(O)CO [TTX, tetrodotoxin]
[1]
  block, predominantly TTX-resistant cells: < 10%
[2]
  block, predominantly TTX-sensitive cells: ~ 100%
[3]
  block, mixed cells: 29–68%

## CN1CC[C@]23c4c5ccc(O)c4O[C@H]2[C@@H](O)C=C[C@H]3[C@H]1C5 [morphine]
[4]
  pED50 formalin (phase II): 5.4 ± 0.22 −log g
[5]
  efficacy during morphine infusion, day 7: loses its efficacy by day 7
  phase II formalin flinching, morphine-tolerant rats: did not significantly reduce phase II formalin flinching
[6]
  block of phase 2 during morphine infusion, day 2: significant block of phase 2 on day 2

## ziconotide [reference compound]
[4]
  pED50 formalin (phase II): 7.1 ± 0.18 −log g
[7]
  behavioral side effects: whole body shakes, increased muscle tone and “serpentine” tail movement
  scratching behavior: did not induce scratching behavior
[8]
  histamine release and hemodynamic changes: induce histamine release and associated hemodynamic changes
